Laboratory results from PubChem BioAssay AID256 (DTP/NCI, 2004).
“And” between values parts separate entries of the source, which are not always exact repeats. Identical values can stand only once. Toxic doses and inconclusive results are not listed.

System: CD2F1 mice, L1210 leukemia ip, survival T/C
Assay: NCI In Vivo Anticancer Drug Screen. Data for tumor model L1210 Leukemia (intraperitoneal) in CD2F1 (CDF1) mice
Details: higher = longer survival
Outline: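 Mice carrying a transplanted tumor received test compound or vehicle alone. The value is the measurement in the treated group divided by that in the vehicle-treated control group.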

[1] = endpoint: mean survival time, dose: 100.0 mg/kg/injection, schedule: Q01DX009 (ip), vehicle: saline with Tween-80
[2] = endpoint: mean survival time, dose: 100.0 mg/kg/injection, schedule: Q04DX003 (ip), vehicle: saline with Tween-80
[3] = endpoint: mean survival time, dose: 200.0 mg/kg/injection, schedule: Q01DX009 (ip), vehicle: saline with Tween-80
[4] = endpoint: mean survival time, dose: 200.0 mg/kg/injection, schedule: Q04DX003 (ip), vehicle: saline with Tween-80
[5] = endpoint: mean survival time, dose: 400.0 mg/kg/injection, schedule: Q01DX009 (ip), vehicle: saline with Tween-80
[6] = endpoint: mean survival time, dose: 400.0 mg/kg/injection, schedule: Q04DX003 (ip), vehicle: saline with Tween-80
[7] = endpoint: mean survival time, dose: 100.0 mg/kg/injection, schedule: Q01DX001 (ip), vehicle: saline with Tween-80

For `COc1ccc(C2=N/C(=C\c3ccccc3)C(=O)O2)cc1`, which T/C [1] is on record?
Its T/C is 96 % of control.

What about the T/C [2] of the same compound?
The T/C was 93 % of control.

What about the T/C [3] of the same compound?
The T/C was 90 % of control.

What about the T/C [4] of the same compound?
Its T/C is 92 % of control.

What about the T/C [5] of the same compound?
The T/C was 98 % of control.

And the T/C [6]?
Its T/C is 89 % of control.

With `Cc1ccccc1-[n+]1nc(-c2ccccc2)nn1-c1ccccc1` as the compound, how does the T/C (endpoint: mean survival time, dose: 1.25 mg/kg/injection, schedule: Q01DX009 (ip), vehicle: saline sonified) read?
The T/C was 104 % of control.

What about the T/C (endpoint: mean survival time, dose: 5.0 mg/kg/injection, schedule: Q04DX003 (ip), vehicle: saline with Tween-80) of the same compound?
The T/C was 98 % of control.

What does the source list for `CC(=O)CC(C)=Nc1ccc([N+](=O)[O-])cc1`?
T/C [1]: 90 % of control; T/C [3]: 93 % of control; T/C [5]: 90 % of control

Which T/C [2] does the source give for `C(=NCc1ccccc1)c1ccccc1-c1ccccc1C=NCc1ccccc1` here?
Its T/C is 97 % of control.

What about the T/C [4] of the same compound?
Its T/C is 107 % of control.

And the T/C [6]?
Its T/C is 106 % of control.

What does the source list for `CCOC(=O)C(OCC)C1=Cc2ccccc2CC1` (stereo not given)?
T/C (endpoint: mean survival time, dose: 12.5 mg/kg/injection, schedule: Q01DX005 (ip), vehicle: Klucel (hydroxypropylcellulose) (HPC)): 97 % of control; T/C (endpoint: mean survival time, dose: 25.0 mg/kg/injection, schedule: Q01DX005 (ip), vehicle: Klucel (hydroxypropylcellulose) (HPC)): 97 % of control; T/C (endpoint: mean survival time, dose: 50.0 mg/kg/injection, schedule: Q01DX005 (ip), vehicle: Klucel (hydroxypropylcellulose) (HPC)): 98 % of control; T/C (endpoint: mean survival time, dose: 100.0 mg/kg/injection, schedule: Q01DX005 (ip), vehicle: Klucel (hydroxypropylcellulose) (HPC)): 93 % of control; T/C (endpoint: mean survival time, dose: 200.0 mg/kg/injection, schedule: Q01DX005 (ip), vehicle: Klucel (hydroxypropylcellulose) (HPC)): 89 % of control; T/C (endpoint: mean survival time, dose: 400.0 mg/kg/injection, schedule: Q01DX005 (ip), vehicle: Klucel (hydroxypropylcellulose) (HPC)): 98 % of control

`O=P(Oc1ccccc1)(Oc1ccccc1)C(Nc1ccccc1)c1ccccc1` (stereo not given) was tested. Which T/C [1] did it give?
The T/C was 88 % of control.

What about the T/C [3] of the same compound?
The T/C was 97 % of control.

What about the T/C [5] of the same compound?
Its T/C is 89 % of control.

How did the T/C (endpoint: mean survival time, dose: 25.0 mg/kg/injection, schedule: Q01DX009 (ip), vehicle: saline) turn out when `CCN(CC)c1cc(Cl)ccc1Cl` was run?
Its T/C is 102 % of control.

What about the T/C (endpoint: mean survival time, dose: 25.0 mg/kg/injection, schedule: Q04DX002 (ip), vehicle: saline with Tween-80) of the same compound?
The T/C was 91 % of control.

What about the T/C (endpoint: mean survival time, dose: 50.0 mg/kg/injection, schedule: Q01DX009 (ip), vehicle: saline) of the same compound?
The T/C was 101 % of control.

What about the T/C (endpoint: mean survival time, dose: 50.0 mg/kg/injection, schedule: Q04DX002 (ip), vehicle: saline with Tween-80) of the same compound?
The T/C was 95 % of control.

And the T/C [7]?
Its T/C is 98 % of control.

What about the T/C (endpoint: mean survival time, dose: 100.0 mg/kg/injection, schedule: Q01DX009 (ip), vehicle: saline) of the same compound?
The T/C was 101 % of control.

What does the source list for `NC(=O)c1csc(COC(CO)CO)n1`?
T/C (endpoint: median survival time, dose: 15.38 mg/kg/injection, schedule: Q01DX009 (ip), vehicle: water): 93 % of control; T/C (endpoint: median survival time, dose: 30.75 mg/kg/injection, schedule: Q01DX009 (ip), vehicle: water): 97 % of control; T/C (endpoint: median survival time, dose: 61.5 mg/kg/injection, schedule: Q01DX009 (ip), vehicle: water): 101 % of control; T/C (endpoint: median survival time, dose: 123.0 mg/kg/injection, schedule: Q01DX009 (ip), vehicle: water): 100 % of control

Which results are given for `ClCCc1cnc[nH]1`?
T/C (endpoint: mean survival time, dose: 25.0 mg/kg/injection, schedule: Q01DX005 (ip), vehicle: water): 104 % of control; T/C (endpoint: mean survival time, dose: 50.0 mg/kg/injection, schedule: Q01DX005 (ip), vehicle: water): 101 % of control; T/C (endpoint: mean survival time, dose: 100.0 mg/kg/injection, schedule: Q01DX005 (ip), vehicle: water): 105 % of control

Which T/C (endpoint: mean survival time, dose: 3.0 mg/kg/injection, schedule: Q01DX008 (iv), vehicle: water) does the source give for `O=C(Nc1ccc(NC2=NCCN2)cc1)c1ccc(C(=O)Nc2ccc(NC3=NCCN3)cc2)cc1` here?
The T/C was 115 % of control.

Which T/C (endpoint: mean survival time, dose: 3.13 mg/kg/injection, schedule: Q01DX009 (ip), vehicle: saline with Tween-80) does the source give for `CS/C([S-])=N/[NH-].CS/C([S-])=N/[NH-].[Ni]` here?
The T/C was 97 % of control.

What about the T/C (endpoint: mean survival time, dose: 12.5 mg/kg/injection, schedule: Q01DX001 (ip), vehicle: saline with Tween-80) of the same compound?
The T/C was 102 % of control.

For `C/C=C/c1cnc(N)nc1-c1ccc(OC)cc1`, which T/C [7] is on record?
The T/C was 97 % of control.

And the T/C (endpoint: mean survival time, dose: 200.0 mg/kg/injection, schedule: Q01DX001 (ip), vehicle: saline with Tween-80)?
Its T/C is 94 % of control.

And the T/C (endpoint: mean survival time, dose: 400.0 mg/kg/injection, schedule: Q01DX001 (ip), vehicle: saline with Tween-80)?
Its T/C is 97 % of control.

Which results are given for `O=C(O)CCC(O)C(=O)O.[NH-]C1CCCCC1[NH-].[Pt+2]` (stereo not given)?
T/C (endpoint: median survival time, dose: 3.12 mg/kg/injection, schedule: Q04DX003 (ip), vehicle: saline): 120 % of control and 110 % of control; T/C (endpoint: median survival time, dose: 6.25 mg/kg/injection, schedule: Q04DX003 (ip), vehicle: saline): 120 % of control; T/C (endpoint: median survival time, dose: 25.0 mg/kg/injection, schedule: Q04DX003 (ip), vehicle: saline): 158 % of control; T/C (endpoint: median survival time, dose: 50.0 mg/kg/injection, schedule: Q04DX003 (ip), vehicle: saline): 170 % of control and 186 % of control; T/C (endpoint: median survival time, dose: 100.0 mg/kg/injection, schedule: Q04DX003 (ip), vehicle: saline): 365 % of control

For `Cc1cc(C)cc(OCCOCCOc2cc(C)cc(C)c2)c1`, which T/C [2] is on record?
Its T/C is 94 % of control.

What about the T/C [4] of the same compound?
Its T/C is 97 % of control.

And the T/C [6]?
Its T/C is 100 % of control.
